Test results as given in patent US20220315624A1, “THIOSTREPTON ANALOGS AND METHODS OF MAKING AND USING SAME” (YALE UNIVERSITY, priority 2019, published 2022).
Converted amounts (≈) assume the structure as drawn.

Assays:
E. coli ATCC 25922 [1] = conditions: range in parentheses; cited from earlier work
[2] = system: S. aureus ATCC 29213 MSSA; test: MIC broth microdilution; format: cell-based; conditions: Staphylococcus aureus; S. aureus ATCC 29213 MSSA; CAMHB; read-out: MIC
Protocol: (§1) Twenty-four test agents were shipped to Micromyx and stored at −20° C. until assayed. The compounds were dissolved in 100% DMSO at 6.46 mg/mL prior to testing. Comparator drugs were supplied by Micromyx and were handled as described below:
(§2) The test organisms for the assay were recent clinical isolates or reference strains acquired from the American Type Culture Collection (ATCC; Manassas, Va.). Upon receipt, the isolates were streaked onto Trypticase Soy Agar II+5% sheep blood (TSAB). Colonies were harvested from the plates and a cell suspension was prepared in Trypticase Soy Broth containing cryoprotectant. Aliquots were then frozen at −80° C. Prior to the assay, the frozen seeds of all bacterial isolates to be tested were thawed and streaked for isolation onto TSAB (BD/BBL, Sparks, Md.; Lot No. 9011894), and were incubated overnight at 35° C.
(§3) The test medium for all isolates was cation-adjusted Mueller Hinton broth (CAMHB; BD/BBL; Lot No. 8190586). CAMHB (Cation Adjusted Mueller Hinton Broth) was supplemented with 3% (v/v) lysed horse blood (LHB; Hemostat, Dixon, Calif.; Lot No. 474990) for the testing of streptococci.
(§4) MIC values were determined using a broth microdilution method as recommended by CLSI. Automated liquid handlers (Multidrop 384, Labsystems, Helsinki, Finland; Biomek 2000 and Biomek F/X, Beckman Coulter, Fullerton Calif.) were used to conduct serial dilutions and make liquid transfers.
(§5) The wells of standard 96-well microdilution plates (Costar 3795, Corning Inc., Corning, N.Y.) were filled with 150 μL of the appropriate diluent in columns 2-12 on the Multidrop 384 (DMSO for the thiostrepton analogs, deionized H2O for vancomycin and ceftazidime). These plates were used to prepare the drug “mother plate” which provided the serial drug dilutions for the replicate “daughter plates”. The compounds (300 μL) were dispensed at 101× the highest concentration to be tested into the appropriate row of the “mother plate”. The Biomek 2000 was used to transfer 150 μL of each stock solution from the wells in Column 1 of the mother plate to make ten subsequent 2-fold serial dilutions. The wells of Column 12 contained no drug and served as the organism growth control wells. The daughter plates were loaded with 190 μL of test medium using the Multidrop 384.
(§6) The daughter plates were prepared on the Biomek F/X instrument which transferred […] of drug solution from each well of the mother plate to each corresponding well of each daughter plate in a single step. The wells of the daughter plates ultimately contained 190 μL of media, 2 μL of drug solution, and 10 μL of inoculum prepared as described below. The final concentration of DMSO (if used as a solvent) in the test well was 1%.
(§7) A standardized inoculum of each organism was prepared per CLSI methods. A suspension of organisms from a fresh plate was prepared in CAMHB to equal the turbidity of a 0.5 McFarland standard. The suspensions were diluted 1:20 in CAMHB, or in the case of streptococci CAMHB with LHB. The inoculum for each organism was dispensed into sterile reservoirs divided by length (Beckman Coulter), and the Biomek 2000 was used to inoculate the plates. Daughter plates were placed on the Biomek 2000 work surface reversed so that inoculation took place from low to high drug concentration. The Biomek 2000 delivered 10 μL of standardized inoculum into each well. These dilutions yielded a final cell concentration in the daughter plates of approximately 5.0×10^5 CFU/mL.
(§8) Plates were stacked 3 high, covered with a lid on the top plate, placed in plastic bags, and incubated at 35° C. for 16-20 hr for all organisms except streptococci which were incubated for 20-24 hr. Following incubation, the microplates were removed from the incubator and viewed from the bottom using a plate viewer. The MIC was read and recorded as the lowest concentration of drug that inhibited visible growth of the organism. […]

S. aureus MMX 8088 MRSA = test: MIC broth microdilution; format: cell-based; conditions: Staphylococcus aureus; S. aureus MMX 8088 MRSA; CAMHB; read-out: MIC
Protocol: as §1, §2, §3, §4, §5, §6, §7, §8

[3] = system: S. pneumoniae ATCC 49619 PISP; test: MIC broth microdilution; format: cell-based; conditions: Streptococcus pneumoniae, ATCC49619, 20 h; S. pneumoniae ATCC 49619 PISP; CAMHB with 3% lysed horse blood; read-out: MIC
Protocol: as §1, §2, §3, §4, §5, §6, §7, §8

S. pyogenes ATCC 19615 = test: MIC broth microdilution; format: cell-based; conditions: Streptococcus pyogenes, ATCC19615, 20 h; S. pyogenes ATCC 19615; CAMHB with 3% lysed horse blood; read-out: MIC
Protocol: as §1, §2, §3, §4, §5, §6, §7, §8

E. coli ATCC 25922 [4] = test: MIC broth microdilution; format: cell-based; conditions: Escherichia coli, ATCC25922; E. coli ATCC 25922; CAMHB; read-out: MIC
Protocol: as §1, §2, §3, §4, §5, §6, §7, §8

[5] = system: E. faecalis ATCC 29212 VSE; test: MIC broth microdilution; format: cell-based; conditions: Enterococcus faecalis, ATCC29212; E. faecalis ATCC 29212 VSE; CAMHB; read-out: MIC
Protocol: as §1, §2, §3, §4, §5, §6, §7, §8

E. faecium MMX 485 VRE = test: MIC broth microdilution; format: cell-based; conditions: Enterococcus faecium; E. faecium MMX 485 VRE; CAMHB; read-out: MIC
Protocol: as §1, §2, §3, §4, §5, §6, §7, §8

E. faecalis MMX 486 VRE = test: MIC broth microdilution; format: cell-based; conditions: Enterococcus faecalis; E. faecalis MMX 486 VRE; CAMHB; read-out: MIC
Protocol: as §1, §2, §3, §4, §5, §6, §7, §8

E. faecium MMX 708 VSE = test: MIC broth microdilution; format: cell-based; conditions: Enterococcus faecium, MMX708VSE; E. faecium MMX 708 VSE; CAMHB; read-out: MIC
Protocol: as §1, §2, §3, §4, §5, §6, §7, §8

[6] = system: S. aureus ATCC 29213 MSSA; conditions: range in parentheses; cited from earlier work
S. aureus isolates = test: MIC broth microdilution, S. aureus isolates; format: cell-based; conditions: Staphylococcus aureus; across MSSA and MRSA isolates; read-out: MIC values against S. aureus isolates
Protocol: as §1, §2, §3, §4, §5, §6, §7, §8

[7] = system: E. faecalis and E. faecium; test: MIC broth microdilution, summary over enterococci; format: cell-based; conditions: across the evaluated enterococci, VSE and VRE; read-out: MIC values against E. faecalis and E. faecium
Protocol: as §1, §2, §3, §4, §5, §6, §7, §8

[8] = Aqueous solubility analysis in MOPS buffer; format: physicochemical; conditions: aqueous 10 mM MOPS buffer, thermodynamic from solid; after 24 hours in 10 mM aqueous MOPS buffer, pH 7.2
Protocol: A 2 dram vial was loaded with ˜0.5 mg of a thiostrepton derivative and suspended in ˜4 mL of aqueous 10 mM MOPS buffer (pKa 7.2). The suspension was stirred vigorously for 24 h to ensure equilibration, then filtered through a […] centrifuge filtration unit. A 3.0 mL aliquot was concentrated, and the dried residue was diluted with 0.30 mL of 1:1 1,4-dioxane/H2O (10× original concentration necessitated by detection limits). The total UV absorbance (200-300 nm) was measured in triplicate by UPLC runs with a photodiode array detector. A calibration curve for each compound was created using data points from 3 trials each of concentrations in 1:1 1,4-dioxane/H2O ranging from […]. These concentrations were plotted against their respective average absorbances. The experimental concentration of each compound was calculated by dividing the found μg/mL value by the residue concentration factor of 10 to yield the actual solubility value.

[9] = Un-inoculated solubility control plate (drug precipitation); format: physicochemical; conditions: at 64 μg/mL in CAMHB in LHB
Gram-positive cocci = test: MIC broth microdilution, overall summary; format: cell-based; conditions: summary of MIC testing
Protocol: as §1, §2, §3, §4, §5
The daughter plates were prepared on the Biomek F/X instrument which transferred […] of drug solution from each well of the mother plate to each corresponding well of each daughter plate in a single step. […]
as §8, with “Following incubation, the microplates were removed from the incubator and viewed from the bottom using a plate viewer.” left out

[10] = system: S. pneumoniae and S. pyogenes isolates; test: MIC broth microdilution, summary over streptococci; format: cell-based; conditions: across evaluated streptococci; read-out: MIC values against S. pneumoniae and S. pyogenes isolates
Protocol: as §1, §2
The test medium for all isolates was cation-adjusted Mueller Hinton broth (CAMHB; BD/BBL; Lot No. 8190586). […]
MIC values were determined using a broth microdilution method as recommended by CLSI. […]
as §8, with “Following incubation, the microplates were removed from the incubator and viewed from the bottom using a plate viewer.” left out

Row | SMILES | CLSI quality control range (MIC) (E. coli ATCC 25922 [1]) [µg/mL] | MIC [2] [µg/mL] | MIC (S. aureus MMX 8088 MRSA) [µg/mL] | MIC [3] [µg/mL] | MIC (S. pyogenes ATCC 19615) [µg/mL] | MIC (E. coli ATCC 25922 [4]) [µg/mL] | MIC [5] [µg/mL] | MIC (E. faecium MMX 485 VRE) [µg/mL] | MIC (E. faecalis MMX 486 VRE) [µg/mL] | MIC (E. faecium MMX 708 VSE) [µg/mL] | CLSI quality control range (MIC) [6] [µg/mL] | MIC (S. aureus isolates) [µg/mL] | MIC [7] [µg/mL] | solubility at 24 h [8] [µg/mL] | Precipitation in CAMHB in LHB [9] | Activity among the evaluated analogs / against evaluated Gram-positive cocci (summary in words) (Gram-positive cocci) | MIC [10] [µg/mL]
1 | CC(C)(O/N=C(\C(=O)N[C@@H]1C(=O)N2C(C(=O)[O-])=C(C[n+]3ccccc3)CS[C@H]12)c1csc(N)n1)C(=O)O [Ceftazidime, reference compound] | 0.06 to 0.5 | 8 (≈ 14.6 µM) | > 32 | 0.5 (≈ 0.915 µM) | 0.12 (≈ 0.22 µM) | 0.25 (≈ 0.457 µM) | > 32 | > 32 | > 32 | > 32 | 4 to 16 |  |  |  |  |  | 
2 | C=C(NC(=O)c1csc(C2=N[C@@H]3c4csc(n4)[C@H]4NC(=O)c5csc(n5)[C@H]([C@](C)(O)[C@@H](C)O)NC(=O)C5CSC(=N5)/C(=C/C)NC(=O)[C@H]([C@@H](C)O)NC(=O)c5csc(n5)[C@]3(CC2)NC(=O)[C@H](C)NC(=O)C(=C)NC(=O)[C@H](C)NC(=O)[C@H]([C@@H](C)CC)N[C@@H]2C=Cc3c([C@H](C)O)cc(nc3[C@H]2O)C(=O)O[C@@H]4C)n1)C(=O)NC(=CNC(=O)c1cccc(/C=N/OC2O[C@H](CO)[C@@H](O)[C@H](O)[C@H]2O)c1)C(N)=O (some centres unmarked) [RJS-16] |  | 16 (≈ 8.04 µM) | 16 (≈ 8.04 µM) | 0.25 (≈ 0.126 µM) | 0.25 (≈ 0.126 µM) | > 64 | 16 (≈ 8.04 µM) | 8 (≈ 4.02 µM) | 16 (≈ 8.04 µM) | 16 (≈ 8.04 µM) |  | 16 (≈ 8.04 µM) | 8 to 16 (≈ 4.02 to 8.04 µM) | 11 (≈ 5.53 µM) | distinct precipitation | least activity | 0.25 (≈ 0.126 µM)
